Reference: patent US5783402A, “Method of identifying ligands and anatgonists of G-protein coupled receptor” (The United States of America as represented by the …, priority 1996, dated 1998)

Assays:
rat cannabinoid receptor = assay: Inhibition of forskolin-mediated induction of β-galactosidase in cannabinoid receptor transfected LVIP2.OZc cells; assay type: cell-based; settings: 1 μM CP55940, 0.5 μM forskolin, IBMX, 6 hours
Experimental: Cells were exposed for 6 hours to medium containing 0.5 mM IBMX, 0.5 mM BSA and 0.5 μM forskolin ±1 μM CP55940.
One hundred microliters of medium containing IBMX/ascorbic acid or forskolin (1 μM)/IBMX/ascorbic acid were added to control wells. […] Each set of conditions was carried out in quadruplicate. After an eight hour exposure to ligand the cells were washed with 200 μl phosphate buffered saline and β-galactosidase activity was assayed.
β-Galactosidase microassay. β-galactosidase activity was measured with a microplate reader (Molecular Devices, Palo Alto).
All the steps in the microassay were carried out at room temperature. The assay buffer is composed of 100 mM sodium phosphate, 2 mM MgSO4, 0.1 mM MnCl2, pH 8.0. The adherent cells were washed with PBS, the plate drained and 25 μl/well of hypotonic lysis buffer added to each well, (dilute 1 part buffer with 9 parts water). […] After an additional 10 minutes, 24 μl of ONPG (4 mg/ml in assay buffer; prepared daily) was added, and the optical density per well at 405 nm was determined with a plate reader. Readings were taken through 1.5 OD at 405 nm, within the linear portion of the color development. The initial rates, expressed as mOD/minute, are linearly related to β-galactosidase enzyme concentration over an enzyme concentration range of 0.1 to 100 mU (one unit hydrolyzes one micromole of ONPG per minute at 25 degrees, pH 7.5).

[1] = system: endogenous receptors for adenosine in LVIP2.OZc cells; assay: β-galactosidase (ONPG) induction in untransfected LVIP2.OZc cells by NECA (endogenous adenosine receptors); assay type: cell-based, mouse
Experimental: (§1) FIG. 1. Detection of β-galactosidase of color development of o-nitrophenol. LVIP2.OZc cells were exposed for 8 hours to control medium (containing 0.5 mM IBMX) (.quadrature.), or control medium containing 0.5 μM forskolin (.cndot.), or control medium containing 1 μM (.box-solid.) or 10 NECA (.tangle-solidup.). After cell lysis and addition of the substrate ONPG, enzyme activity was measured as optical density at 405 nm at various time intervals. Data are mean±S.D. taken from one experiment that is representative of several.
(§2) FIG. 2. Induction of β-galactosidase as a response to length of ligand exposure. LVIP2.OZc cells were incubated for 1, 2, 4, 6, 8, 12, 15 and 18 hours in control medium (containing 0.5 mM IBMX) (.quadrature.), or control medium containing 0.5 μM forskolin (.cndot.), or control medium containing 1 μM NECA (.box-solid.), or control medium containing 1 μM PGE2 (.tangle-solidup.). Data are mean±S.D. from one representative experiment.
(§3) FIG. 3. Induction of β-galactosidase as a response to different doses of ligands. LVIP2.OZc cells were treated for 8 hours with control medium (containing 0.5 mM IBMX), and 0.1 or 0.2 or 0.5 or 1 μM forskolin (.cndot.), control medium and 0.1 or 0.5 or 1 or 10 μM NECA (.box-solid.), control medium containing 0.1 or 0.5 or 1 or 10 μM PGE2 (.tangle-solidup.). Data are mean±S.D. from a representative experiment.
(§4) Care should be taken to avoid foaming.
Therefore, a quantitative assay was developed for the cAMP-mediated increase in β-galactosidase activity. This assay was performed in 96 well plates after solubilization of the cells and incubation with the substrate ONPG. Thus, the change in optical density over a defined period of time was directly proportional to the level of β-galactosidase activity. The optical density increased linearly with time up to 1.5. The LVIP2.OZc cells were determined to contain endogenous […] -coupled receptors for PGE (prostaglandin E2) and adenosine. In pilot studies, untransfected cells were treated for 8 hours with IBMX in the presence or absence of NECA [5'-(N-ETHYLCARBOXAMIDO)-ADENOSINE, adenosine A2 receptor agonist], or forskolin, to increase intracellular cAMP levels (FIG. 1). […] The enzyme levels generated by 1 μM NECA, 10 μM NECA, and 0.5 μM forskolin were determined to be 8, 30, and 48 -fold higher, respectively, than in the IBMX control cells. The differences were discernible by visual examination after 3 to 6 hours.
In pilot studies, cells were exposed to IBMX in the presence or absence for forskolin (0.5 μM), NECA (1 μM), or prostaglandin E2 (1 μM) for 2, 4, 6, 8, 15, or 18 hours and their β-galactosidase activities measured. […] Dose-response data (FIG. 3) were obtained by treating cells with forskolin, NECA, or PGE2 for 8 hours. […]

[2] = system: endogenous receptors for PGE (prostaglandin E2) in LVIP2.OZc cells; assay: β-galactosidase (ONPG) induction in untransfected LVIP2.OZc cells by PGE2 (endogenous PGE receptors); assay type: cell-based, mouse; settings: 8 hours, IBMX
Experimental: as §2
as §3, with “Data are mean±S.D. from a representative experiment.” left out
(§5) Therefore, a quantitative assay was developed for the cAMP-mediated increase in β-galactosidase activity. […] The LVIP2.OZc cells were determined to contain endogenous […] -coupled receptors for PGE (prostaglandin E2) and adenosine. […] The enzyme levels generated by 1 μM NECA, 10 μM NECA, and 0.5 μM forskolin were determined to be 8, 30, and 48 -fold higher, respectively, than in the IBMX control cells. […]
(§6) In pilot studies, cells were exposed to IBMX in the presence or absence for forskolin (0.5 μM), NECA (1 μM), or prostaglandin E2 (1 μM) for 2, 4, 6, 8, 15, or 18 hours and their β-galactosidase activities measured. […]

dopamine D2L receptor = settings: 10 μM agonist, 0.5 μM forskolin, IBMX, 6 hours
From the text: Data are mean±S.D. from one representative experiment. […] Data are mean±S.D. from one representative experiment. […] Data are mean±S.D. from one representative experiment.
Transfection of cells. Cells were transfected by the calcium phosphate transfection protocol of Chen and Okayama. For each plasmid DNA preparation, the amount of DNA required for formation of an optimum calcium phosphate-DNA precipitate varies; thus, a dose response study is desirable. […]
β-Galactosidase microassay. β-galactosidase activity was measured with a microplate reader (Molecular Devices, Palo Alto). […]
All the steps in the microassay were carried out at room temperature. […] After an additional 10 minutes, 24 μl of ONPG (4 mg/ml in assay buffer; prepared daily) was added, and the optical density per well at 405 nm was determined with a plate reader. Readings were taken through 1.5 OD at 405 nm, within the linear portion of the color development. The initial rates, expressed as mOD/minute, are linearly related to β-galactosidase enzyme concentration over an enzyme concentration range of 0.1 to 100 mU (one unit hydrolyzes one micromole of ONPG per minute at 25 degrees, pH 7.5). […]

LVIP2.OZc cells [3] = assay: X-gal staining of LVIP2.OZc cells (blue positive cells) after forskolin + IBMX; assay type: cell-based, mouse; settings: forskolin 5 μM + IBMX 0.5 mM, 6 to 18 hours
Experimental: Hygromycin-resistant Ltk^- clones were screened for induction of β-galactosidase after addition of forskolin (10 μM) and IBMX (0.5 μM).
In preliminary experiments, forskolin (5 μM) and IBMX (0.5 mM) was used to increase cyclic AMP levels. […] Next, the cells were transfected with human β2 -adrenergic receptor cDNA in the pcD expression vector. […] Ascorbic acid was added to prevent oxidation of isoproterenol.

LVIP2.OZc cells [4] = assay: β-galactosidase (ONPG) induction in untransfected LVIP2.OZc cells by forskolin; assay type: cell-based, mouse; settings: 8 hours
Experimental: as §1, §2, §3, §4, §5, §6

## CCCCCCC(C)(C)c1ccc([C@@H]2C[C@H](O)CC[C@H]2CCCO)c(O)c1 [CP55940]
Rat cannabinoid receptor
  decrease of forskolin stimulated activity: 15%

## CCNC(=O)[C@H]1O[C@@H](n2cnc3c(N)ncnc32)[C@H](O)[C@@H]1O [NECA, 5'-(N-ETHYLCARBOXAMIDO)-ADENOSINE]
[1]; 1 μM NECA, 8 hours, IBMX
  enzyme level relative to IBMX control cells: 8 -fold
[1]; 8 hours, IBMX
  concentration required to achieve maximum enzyme induction: 10 µM
  β-galactosidase activity versus IBMX-treated control cells (in words): considerably higher levels
[1]; lvip2.ozc cells, 8 h, 10 µM
  enzyme level relative to IBMX control cells: 30 -fold

## CCCCC[C@H](O)/C=C/[C@H]1[C@H](O)CC(=O)[C@@H]1C/C=C\CCCC(=O)O [PGE2, prostaglandin E2]
[2]
  concentration required to achieve maximum enzyme induction: 10 µM

## NCCc1ccc(O)c(O)c1 [dopamine]
Dopamine D2L receptor
  inhibition of forskolin-stimulated increase of β-galactosidase activity: Significant inhibition

## C=C[C@@]1(C)CC(=O)[C@]2(O)[C@@]3(C)[C@@H](O)CCC(C)(C)[C@@H]3[C@H](O)[C@H](OC(C)=O)[C@@]2(C)O1 [forskolin]
LVIP2.OZc cells [3]
  cells that developed a blue color: More than 90%
LVIP2.OZc cells [4]
  β-galactosidase activity versus IBMX-treated control cells (in words): considerably higher levels
LVIP2.OZc cells [4]; IBMX
  concentration producing maximum effect: 0.5 µM
LVIP2.OZc cells [4]; Mus musculus, 0.5 μM forskolin, IBMX, read-out: enzyme level relative to IBMX control cells
  fold induction at 0.5 µM: 48
